The results in this text go back to patent US4870097A, “Pharmaceutical use of derivatives of tryptophan” (priority 1984, dated 1989).

Structures are written as SMILES.

In this experiment the test system is tolerance induced by morphine. Put plainly: Antagonism to the development of tolerance to repeated administration of morphine HCl (tail flick). Format: in vivo, rats. Conditions: for percentage variation in the latency time, day 0 / percentage variation in the latency time, day 1 / percentage variation in the latency time, day 2 / percentage variation in the latency time, day 3 / percentage variation in the latency time, day 4 / percentage variation in the latency time, day 5 / percentage variation in the latency time, day 6 / percentage variation in the latency time, day 7: 3 mg/kg i.p. + morphine HCl 3 mg/kg i.p. (row Morphine: alone); for Area subtended (1) / regression line % Effect versus Day: 3 mg/kg + morphine (row Morphine: alone). As for the experimental part: Several of the compounds of the invention were examined to determine any capacity to antagonise the development of tolerance induced by morphine. Groups of six male rats having a weight of about 200-250 were used.
At intervals of 24 hours from the first treatment (time 0), each animal (except for the control group treated with a physiological solution) received 3 mg/kg of morphine hydrochloride i.p. together with 3 mg/kg i.p. of the compounds indicated (with the exception of the group treated solely with morphine).
The determination of the threshold for the pain stimulus was effected at 15°, 30', 45' and 60' intervals from the treatment by the "tail flick" test.

With `CCCCCCc1ccc(C(=O)N[C@@H](Cc2c[nH]c3ccccc23)C(=O)O)cc1` [Compound 26], the “percentage variation in the latency time, day 0” value came to 74.14%; the “percentage variation in the latency time, day 1” value came to 45.73%; the “percentage variation in the latency time, day 2” value came to 59.5%; the “percentage variation in the latency time, day 3” value amounted to 51.52%. Also, the “percentage variation in the latency time, day 4” value came out at 43.40%; the “percentage variation in the latency time, day 5” value amounted to 37.60%; the “percentage variation in the latency time, day 6” value turned out to be 21.43%; the “percentage variation in the latency time, day 7” value came to 29.75%. In addition, where the note is “days 0-7”, the “Area subtended (1)” value came out at 366.7 Effect-Day and the “regression line % Effect versus Day” value is on record as “% Effect = - 6.02 Day + 66.5”. The “Area 1 / Area Morphine” value (days 0-7, 3 mg/kg + morphine, ratio to morphine alone) came to 2.61.

`O=C(N[C@@H](Cc1c[nH]c2ccccc12)C(=O)O)OC(c1ccccc1)c1ccccc1` [Compound 33]: the “percentage variation in the latency time, day 0” value is 50.12%; the “percentage variation in the latency time, day 1” value was 67.02%; the “percentage variation in the latency time, day 2” value was determined as 51.47%; the “percentage variation in the latency time, day 3” value came out at 34.92%. The “percentage variation in the latency time, day 4” value came out at 67.3%; the “percentage variation in the latency time, day 5” value amounted to 61.08%; the “percentage variation in the latency time, day 6” value came to 20.02%; the “percentage variation in the latency time, day 7” value came out at 10.33%. Besides, for the setting “days 0-7”, the “Area subtended (1)” value is on record as 382.1 Effect-Day and the “regression line % Effect versus Day” value is “% Effect = - 5.38 Day + 64.12”. The “Area 1 / Area Morphine” value (rat, in vivo, 3 mg/kg) is listed as 2.72.
